Test results as given in ChEMBL document CHEMBL3509421, “FDA drug approval package for diclofenac acid (NDA 22-202 CP, Ref ID: 3374276)”.

What was measured:
[1] = (§1) Mean AUC(0-infinity) of diclofenac potassium following oral dosing of Cataflam 50 mf tablet in healthy human; type: ADME, organism-based; parameters: dietary status Fed, dose 50 mg, dosed compound id 2.46815e+06, dosed compound name Diclofenac potassium, gender Mixed, regimen Single, route oral, study doses 50 mg, time infinity; settings: both, plasma, 50 mg, read-out: AUC(0-infinity)
[2] = Mean Tmax of diclofenac following single oral dosing of 25 mg diclofenac potassium softgel capsule in healthy human; type: ADME, organism-based; parameters: dietary status Fed, dose 25 mg, dosed compound id 2.46815e+06, dosed compound name Diclofenac potassium, gender Mixed, regimen Single, route oral, study doses 25/50 mg; settings: both, plasma
[3] = Mean Cmax of diclofenac following single oral dosing of 50 mg diclofenac potassium soft gelatin capsule in healthy human; type: ADME, organism-based; parameters: dietary status Fasting, dose 50 mg, dosed compound id 2.46815e+06, dosed compound name Diclofenac potassium, gender Mixed, regimen Single, route oral, study doses 25/50 mg; settings: both, plasma
[4] = Mean Cmax of diclofenac potassium following oral dosing of Cataflam 50 mf tablet in healthy human; type: ADME, organism-based; parameters: dietary status Fed, dose 50 mg, dosed compound id 2.46815e+06, dosed compound name Diclofenac potassium, gender Mixed, regimen Single, route oral, study doses 50 mg; settings: both, plasma, 50 mg
[5] = clinical; settings: both, human, plasma, po, 50 mg
[6] = (§2) Geometric mean for apparent terminal elimination rate constant of diclofenac following single oral dosing of 35 mg Zorvolex capsule in healthy human; type: ADME, organism-based, Plasma; parameters: dietary status Fasting, dose 35 mg, dosed compound id 2.46815e+06, dosed compound name Diclofenac, gender Mixed, regimen Single, route oral; settings: in vivo
[7] = Mean AUC (0-infinity) value of diclofenac following single oral dosing of 18 mg Zorvolex capsule in healthy human; type: ADME, organism-based; parameters: time infinity, dietary status Fasting, dose 18 mg, dosed compound id 2.46815e+06, dosed compound name Diclofenac, gender Mixed, regimen Single, route oral; settings: both, plasma, read-out: AUC (0-infinity)
[8] = Geometric mean for AUC (0-infinity) of diclofenac following single oral dosing of 18 mg Zorvolex capsule in healthy human; type: ADME, organism-based; parameters: time infinity, dietary status Fasting, dose 18 mg, dosed compound id 2.46815e+06, dosed compound name Diclofenac, gender Mixed, regimen Single, route oral; settings: both, plasma, read-out: AUC (0-infinity)
[9] = Mean Cmax of diclofenac following single oral dosing of 25 mg diclofenac potassium softgel capsule in healthy human; type: ADME, organism-based; parameters: dietary status Fasting, dose 25 mg, dosed compound id 2.46815e+06, dosed compound name Diclofenac potassium, gender Mixed, regimen Single, route oral, study doses 25/50 mg; settings: both, plasma
[10] = (§3) Mean AUC (0-infinity) value of diclofenac following single oral dosing of 50 mg Cataflam tablet in healthy human; type: ADME, organism-based; parameters: time infinity, dietary status Fasting, dose 50 mg, dosed compound id 2.46815e+06, dosed compound name Diclofenac potassium, gender Mixed, regimen Single, route oral; settings: both, plasma, read-out: AUC (0-infinity)
[11] = Mean AUC (0-infinity) of diclofenac following single oral dosing of 50 mg diclofenac potassium softgel capsule in healthy human; type: ADME, organism-based; parameters: time infinity, dietary status Fed, dose 50 mg, dosed compound id 2.46815e+06, dosed compound name Diclofenac potassium, gender Mixed, regimen Single, route oral, study doses 25/50 mg; settings: both, plasma, read-out: AUC (0-infinity)
[12] = Mean Tmax of diclofenac following single oral dosing of 50 mg diclofenac potassium soft gelatin capsule in healthy human; type: ADME, organism-based; parameters: dietary status Fasting, dose 50 mg, dosed compound id 2.46815e+06, dosed compound name Diclofenac potassium, gender Mixed, regimen Single, route oral, study doses 25/50 mg; settings: both, plasma
[13] = as §1; type: ADME, organism-based; parameters: time infinity, dietary status Fasting, dose 50 mg, dosed compound id 2.46815e+06, dosed compound name Diclofenac potassium, gender Mixed, regimen Single, route oral, study doses 50 mg; settings: both, plasma, 50 mg, read-out: AUC(0-infinity)
[14] = Mean median Tmax value of diclofenac potassium following oral dosing of PRO-513 50 mg sachet in healthy human; type: ADME, organism-based; parameters: dietary status Fed, dose 50 mg, dosed compound id 2.46815e+06, dosed compound name Diclofenac potassium, gender Mixed, regimen Single, route oral, study doses 50 mg; settings: both, plasma, read-out: Median Tmax
[15] = Mean AUC (0-t) of diclofenac following single oral dosing of 50 mg diclofenac potassium softgel capsule in healthy human; type: ADME, organism-based; parameters: dietary status Fasting, dose 50 mg, dosed compound id 2.46815e+06, dosed compound name Diclofenac potassium, gender Mixed, regimen Single, route oral, study doses 25/50 mg; settings: both, plasma
[16] = Median tmax of diclofenac following single oral dosing of 35 mg Zorvolex capsule in healthy human; type: ADME, organism-based; parameters: dietary status Fed, dose 35 mg, dosed compound id 2.46815e+06, dosed compound name Diclofenac, gender Mixed, regimen Single, route oral; settings: both, plasma, read-out: Median Tmax
[17] = as §2; type: ADME, organism-based, Plasma; parameters: dietary status Fed, dose 35 mg, dosed compound id 2.46815e+06, dosed compound name Diclofenac, gender Mixed, regimen Single, route oral; settings: in vivo
[18] = Mean terminal elimination half-life of diclofenac potassium following oral dosing of Cataflam 50 mf tablet in healthy human; settings: both, plasma, 50 mg
[19] = (§4) Geometric mean for AUC (0-t) of diclofenac following single oral dosing of 35 mg Zorvolex capsule in healthy human; type: ADME, organism-based; parameters: dietary status Fed, dose 35 mg, dosed compound id 2.46815e+06, dosed compound name Diclofenac, gender Mixed, regimen Single, route oral; settings: both, plasma
[20] = Mean AUC (0-t) value of diclofenac following single oral dosing of 35 mg Zorvolex capsule in healthy human; type: ADME, organism-based; parameters: dietary status Fasting, dose 35 mg, dosed compound id 2.46815e+06, dosed compound name Diclofenac, gender Mixed, regimen Single, route oral; settings: both, plasma
[21] = (§5) Geometric mean for Cmax of diclofenac following single oral dosing of 35 mg Zorvolex capsule in healthy human; type: ADME, organism-based; parameters: dietary status Fed, dose 35 mg, dosed compound id 2.46815e+06, dosed compound name Diclofenac, gender Mixed, regimen Single, route oral; settings: both, plasma
[22] = as §3; type: ADME, organism-based; parameters: time infinity, dietary status Fed, dose 50 mg, dosed compound id 2.46815e+06, dosed compound name Diclofenac potassium, gender Mixed, regimen Single, route oral; settings: both, plasma, read-out: AUC (0-infinity)
[23] = as §4; type: ADME, organism-based; parameters: dietary status Fasting, dose 35 mg, dosed compound id 2.46815e+06, dosed compound name Diclofenac, gender Mixed, regimen Single, route oral; settings: both, plasma
[24] = as §5; type: ADME, organism-based; parameters: dietary status Fasting, dose 35 mg, dosed compound id 2.46815e+06, dosed compound name Diclofenac, gender Mixed, regimen Single, route oral; settings: both, plasma
[25] = clinical; settings: both, human, plasma, po, 25 mg
[26] = Median tmax of diclofenac following single oral dosing of 50 mg Cataflam tablet in healthy human; type: ADME, organism-based; parameters: dietary status Fed, dose 50 mg, dosed compound id 2.46815e+06, dosed compound name Diclofenac potassium, gender Mixed, regimen Single, route oral; settings: both, plasma, read-out: Median Tmax
[27] = Mean AUC(0-infinity) of diclofenac potassium following oral dosing of PRO-513 50 mg sachet in healthy human; type: ADME, organism-based; parameters: time infinity, dietary status Fasting, dose 50 mg, dosed compound id 2.46815e+06, dosed compound name Diclofenac potassium, gender Mixed, regimen Single, route oral, study doses 50 mg; settings: both, plasma, read-out: AUC(0-infinity)
[28] = Mean AUC (0-t) of diclofenac following single oral dosing of 25 mg diclofenac potassium softgel capsule in healthy human; type: ADME, organism-based; parameters: dietary status Fed, dose 25 mg, dosed compound id 2.46815e+06, dosed compound name Diclofenac potassium, gender Mixed, regimen Single, route oral, study doses 25/50 mg; settings: both, plasma
[29] = Mean Kel of diclofenac potassium following oral dosing of PRO-513 50 mg sachet in healthy human; type: ADME, organism-based; parameters: dietary status Fasting, dose 50 mg, dosed compound id 2.46815e+06, dosed compound name Diclofenac potassium, gender Mixed, regimen Single, route oral, study doses 50 mg; settings: both, plasma
[30] = Geometric mean for apparent terminal elimination rate constant of diclofenac following single oral dosing of 50 mg Cataflam tablet in healthy human; type: ADME, organism-based, Plasma; parameters: dietary status Fasting, dose 50 mg, dosed compound id 2.46815e+06, dosed compound name Diclofenac potassium, gender Mixed, regimen Single, route oral; settings: in vivo
[31] = Mean maximum Tmax value of diclofenac potassium following oral dosing of Cataflam 50 mf tablet in healthy human; type: ADME, organism-based; parameters: dietary status Fasting, dose 50 mg, dosed compound id 2.46815e+06, dosed compound name Diclofenac potassium, gender Mixed, regimen Single, route oral, study doses 50 mg; settings: both, plasma, 50 mg, read-out: Maximum Tmax

SMILES: O=C(O)Cc1ccccc1Nc1c(Cl)cccc1Cl [DICLOFENAC]
- AUC(0-inf) [1]: 1070 ng·h/mL
- Tmax [2]: 1.02 h
- Cmax [3]: 2040 ng/mL
- Cmax [4]: 835 ng/mL
- half-life [5]: 2.27 h
- lambda-z [6]: 0.34 h⁻¹
- AUC(0-inf) [7]: 499 ng·h/mL
- AUC(0-inf) [8]: 487 ng·h/mL
- Cmax [9]: 1160 ng/mL
- AUC(0-inf) [10]: 1330 ng·h/mL
- AUC(0-inf) [11]: 1460 ng·h/mL
- Tmax [12]: 0.48 h
- AUC(0-inf) [13]: 1100 ng·h/mL
- Tmax [14]: 0.17 h
- AUC(0-t) [15]: 1520 ng·h/mL
- Tmax [16]: 3.32 h
- lambda-z [17]: 0.333 h⁻¹
- half-life [18]: 1.29 h
- AUC(0-t) [19]: 837 ng·h/mL
- AUC(0-t) [20]: 1000 ng·h/mL
- Cmax [21]: 321 ng/mL
- AUC(0-inf) [22]: 1200 ng·h/mL
- AUC(0-t) [23]: 980 ng·h/mL
- Cmax [24]: 804 ng/mL
- half-life [25]: 1.35 h
- Tmax [26]: 2.33 h
- AUC(0-inf) [27]: 1250 ng·h/mL
- AUC(0-t) [28]: 680 ng·h/mL
- k el [29]: 0.000156 s⁻¹
- lambda-z [30]: 0.318 h⁻¹
- Tmax [31]: 4 h
